{"source": "patent US20170260186A1", "about": "“PROCESS OF PREPARING AMORPHOUS FORM OF IDELALISIB” (ScinoPharm Taiwan, Ltd., priority 2016, published 2017)", "key": {"[1]": {"assay": "preliminary physicochemical stability study in recommended packaging", "conditions": "3 months", "method": "The double packed LDPE bag was then placed inside an aluminum foil bag with appropriate amount of desiccant between the LDPE bag and the aluminum foil bag. The aluminum bag package was then placed in a High-Density PolyEthylene (HDPE) container and stored at temperature below 25° C."}, "[2]": {"assay": "Dynamic Vapor Sorption (DVS) water-solid interaction", "assay_type": "physicochemical", "method": "Dynamic Vapor Sorption (DVS) The sample was placed into the DVS sample pan and dried under a stream of dry nitrogen at 25° C. with 0% RH. The moisture was gradually introduced into the system with a 10% RH increment up to 90% RH and the humidity was then decreased in a similar trend for desorption phase. The sorption and desorption data were collected with equilibration set to dm/dt 0.004%/min for 5 min/step. The minimum and maximum time for each step were set to 10 and 360 min. Two sorption/desorption cycles were performed."}, "[3]": {"conditions": "accelerated condition 40° C./75% RH"}, "[4]": {"conditions": "long term storage condition 25° C./60% RH"}}, "data": [{"molecule": "CC[C@H](Nc1ncnc2nc[nH]c12)c1nc2cccc(F)c2c(=O)n1-c1ccccc1", "note": "[amorphous idelalisib, (S)-2-(1-(9H-purin-6-ylamino)propyl)-5-fluoro-3-phenylquinazolin-4(3H)-one]", "values": [{"measurement": "solid form", "setting": "[1]; [3]", "value": "remained as amorphous"}, {"measurement": "water content change", "setting": "[1]; [3]", "value": "not increased"}, {"measurement": "solid form", "setting": "[1]; [4]", "value": "remained as amorphous"}, {"measurement": "water content change", "setting": "[1]; [4]", "value": "not increased"}, {"measurement": "hygroscopicity (DVS result)", "setting": "[2]; DVS isotherm, FIG. 4", "value": "hygroscopic material"}, {"measurement": "moisture uptake", "setting": "[2]; DVS, humidity changing from 0% RH to 90% RH, 25° C.", "value": "approximately 8.9%"}]}]}
